Data taken from patent publication US7071195B2, “Amine and amide derivatives as ligands for the neuropeptide Y Y5 receptor useful in the treatment of obesity and other disorders” (Ortho-McNeil Pharmaceutical, Inc., priority 1999, dated 2006).
Structures can show the parent of a compound that is named as a salt.

Biological target: T1, human neuropeptide Y5 receptor (Homo sapiens, UniProt Q15761)
T1 construct: expressed in transfected cells; host or cells: HEK-293 (stably transfected, G-418 selected); membranes
T1 sequence (Q15761 1-445): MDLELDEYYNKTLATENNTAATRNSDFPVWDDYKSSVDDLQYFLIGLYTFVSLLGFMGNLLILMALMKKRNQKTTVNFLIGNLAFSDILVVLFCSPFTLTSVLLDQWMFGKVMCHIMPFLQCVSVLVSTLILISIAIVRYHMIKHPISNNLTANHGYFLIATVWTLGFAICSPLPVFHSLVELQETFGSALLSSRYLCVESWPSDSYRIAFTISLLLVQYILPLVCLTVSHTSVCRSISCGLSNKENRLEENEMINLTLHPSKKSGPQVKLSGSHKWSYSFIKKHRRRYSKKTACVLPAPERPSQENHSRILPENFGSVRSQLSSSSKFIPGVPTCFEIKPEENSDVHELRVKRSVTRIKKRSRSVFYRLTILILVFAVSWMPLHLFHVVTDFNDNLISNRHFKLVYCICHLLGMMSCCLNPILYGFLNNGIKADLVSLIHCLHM
Test: NPY5 HTS centrifugation assay: competition with 125I-PYY for binding to membranes of NPY5-transfected HEK293 cells
Conditions: 80 pM 125I-PYY, 1 hr room temperature; for % Inh @ 300 nM (% Inhibition of 125I-PYY Binding) / inhibition at 0.3 µM: 300 nM compound; for % Inh @ 3 uM (% Inhibition of 125I-PYY Binding) / inhibition at 3 µM: 3 uM compound; for inhibition at 0.3 µM: read-out: % Inh @ 300 nM (% Inhibition of 125I-PYY Binding); for inhibition at 3 µM: read-out: % Inh @ 3 uM (% Inhibition of 125I-PYY Binding)
Method: The compounds described in this invention were evaluated for binding to the human neuropeptide Y5 receptor.
Stably transfected cells served as the source for the membranes for the NPY5 receptor binding assay.
NPY5-transfected HEK293 cells were grown to confluence in 150 cm^2 culture dishes. […] Cells were then incubated in phosphate-buffered saline without Calcium and without Magnesium, supplemented with 2 mM EDTA. Cells were incubated for 10 minutes at room temperature and the cells were collected by repetitive pipeting. Cells were formed into pellets and then frozen at −80 until needed. Frozen pellets were homogenized with a polytron at full speed for 12 seconds in a homogenization buffer (20 mM Tris HCl, 5 mM EDTA, pH 7.4). Homogenates were centrifuged for 5 minutes at 4 C at 200 g. Supernatants were transferred to corex tubes and centrifuged for 25 minutes at 28,000 g. Pellets were re-suspended in Binding (20 mM HEPES, 10 mM NaCl, 0.22 mM KH2PO4, 1.3 mM CaCl2, 0.8 mM MgSO4, pH 7.4). Membranes were kept on ice until use.
Compounds to be tested were prepared as 10× stocks in binding buffer and added first to assay tubes (RIA vials, Sarstedt). […] To each tube is added 100 μL of membranes and the mixture is agitated by pipeting 2 times. Samples are incubated for 1 hr at room temperature. Aluminum cast plates (Sarstedt) containing the vials are then centrifuged 10 minutes at 3200 rpm in a Sorvall RT6000. Supernatant is then aspirated. To each vial 400 μL PBS is added and this is then aspirated again. Vials are then put in carrier polypropylene 12×75 tube and counted in gamma counter (Packard). Non-specific binding is determined in the presence of 300 nM NPY. […] These operations are known to those skilled in the art.

SMILES	% Inh @ 300 nM (% Inhibition of 125I-PYY Binding)	% Inh @ 3 uM (% Inhibition of 125I-PYY Binding)	inhibition at 0.3 µM	inhibition at 3 µM
CC(=O)NC(CCCCNS(=O)(=O)c1ccccc1)C(=O)NC1CCc2ccccc2C1Cc1cccnc1 (mixture of isomers) [Compound 37]	89%	102%		
CC(=O)C1(c2ccccc2)CCN(CC(=O)N[C@H]2CCc3ccccc3[C@H]2Cc2cccnc2)CC1 (relative stereo) [Compound 21, 4-Acetyl-4-phenyl-N-[cis-1,2,3,4-tetrahydro-1-(3-pyridinylmethyl)-2-naphthalenyl]-1-piperidineacetamide bis-hydrochloride]			83%	98%
NC(CCCCNS(=O)(=O)c1ccccc1)C(=O)NC1CCc2ccccc2C1Cc1cccnc1 (mixture of isomers) [Compound 33]	52%	96%		
COc1ccccc1N1CCN(CC(=O)NC2CCc3ccccc3C2Cc2cccnc2)CC1 (centres unmarked) [Compound 93]	81%	97%		
O=C(CN1CCC(NS(=O)(=O)c2ccccc2)C1)N[C@H]1CCc2cc(F)ccc2[C@H]1Cc1cccnc1 (relative stereo) [Compound 17, 3-[(Phenylsulfonyl)amino]-N-[cis-1,2,3,4-tetrahydro-6-fluoro-1-(3-pyridinylmethyl)-2-naphthalenyl]-1-pyrrolidineacetamide bis-trifluoroacetate]			98%	102%
NC(CCCCNS(=O)(=O)c1ccccc1)CNC1CCc2ccccc2C1Cc1cccnc1 (single isomer, unassigned) [Compound 66]	98%	102%		
O=C(CN1CCC(n2c(=O)[nH]c3ccccc32)CC1)NC1CCc2cc(O)ccc2C1 (centres unmarked) [Compound 83]	72%	92%		
O=C(Nc1ccccc1)NC(CCCCNS(=O)(=O)c1ccccc1)C(=O)NC1CCc2ccccc2C1Cc1cccnc1 (mixture of isomers) [Compound 72]	41%	73%		
O=C(CN1CCC(NS(=O)(=O)c2ccccc2)C1)NC1CCc2cc(F)ccc2C1Cc1cccnc1 (mixture of isomers) [Compound 59]	90%	93%		
COc1ccc2c(c1)CC[C@@H](NC(=O)CN1CCC(n3c(=O)[nH]c4ccccc43)CC1)[C@@H]2Cc1cccnc1 (relative stereo) [Compound 20, 4-(2,3-Dihydro-2-oxo-1H-benzimidazol-1-yl)-N-[trans-1,2,3,4-tetrahydro-6-methoxy-1-(3-pyridinylmethyl)-2-naphthalenyl]-1-piperidineacetamide bis-hydrochloride]			88%	96%
O=S(=O)(NC[C@H]1CC[C@H](CNCC(Cc2cccnc2)c2ccc(F)cc2)CC1)c1ccccc1F (some centres unmarked) [Compound 27]			105%	110%
CC(=O)NC(CCCCNS(=O)(=O)c1ccccc1)C(=O)NC1CCc2ccccc2C1Cc1cccnc1 (single isomer, unassigned) [Compound 38b]	89%	101%		
O=C(CN1CCC(NC(=O)c2ccccc2)CC1)NC1CCc2cc(F)ccc2C1Cc1cccnc1 (centres unmarked) [Compound 44]	93%	98%		
CCNC(CCCCNS(=O)(=O)c1ccccc1)CNC1CCc2ccccc2C1Cc1cccnc1 (mixture of isomers) [Compound 68]	109%	108%		
NC(CCCCNS(=O)(=O)c1ccccc1)C(=O)NC1CCc2ccccc2C1Cc1cccnc1 (single isomer, unassigned) [Compound 34a]	87%	97%		
COc1ccc(C(CNC(=O)CN2CCC(n3c(=O)[nH]c4ccccc43)CC2)Cc2cccnc2)cc1 (centres unmarked) [Compound 86]	88%	91%		
